Results reported in patent US9029401B2 (The Regents of the University of California, priority 2011, dated 2015).
Like-named read-outs stand apart in the source and are kept apart here.

Key:
[1] = tested on: SKBR3 breast cancer cell line; assay: MTT cell viability assay, SKBR3; type: cell-based; details: Homo sapiens, read-out: EC50 on cell viability, SKBR3 (Breast)
Method: (§1) Cell-based assays were performed using the described cell lines, grown in the appropriate Growth Mediums containing 10% fetal bovine serum and 1% penicillin-streptomycin. Cancer cells were plated at 15,000 cells/well in 96-well plates and allowed to attach overnight. Inhibitors were dissolved in DMSO and then diluted to concentrations ranging from 0.1-25 μM with a final DMSO concentration of 0.1%. Cell viability was determined after 72 hours incubation periods. To determine anti-proliferative effects of inhibitors, cellular proliferation was determined using the colorimetric MTT cell viability assay kit, as described by the manufacture (ATCC).

Raf-1 = Raf-1 (Homo sapiens (Human), UniProt P04049); assay: In vitro kinase inhibition assay (ADP-Glo), Raf-1; type: biochemical
Method: (§2) All measurements included background and control (vehicle only) luminescence readings.
(§3) The kinases Raf-1 and b-Raf (V600E), and their corresponding substrate, MEK1, and Full length recombinant CRAF kinase and its respective substrate, recombinant MEK1, were purchased from US Biological (Swampscott, Mass.). All assays were performed under identical conditions for the Raf isozymes: 10 nM Enzyme, 1 μM MEK1, 10 μM ATP, at 22° C. for 2 hours. […] IC50 values were obtained by determining the change in the ADP production (luminescence signal) at various inhibitor concentrations as compared to the control assay. Individual data sets were performed in duplicate and each IC50 was determined by the average and standard deviation of three separate experiments.
as §3, with “Full” for “The kinases Raf-1 and b-Raf (V600E), and their corresponding substrate, MEK1, and Full”, “at” for “under identical conditions for the Raf isozymes:”, “CRAF,” for “Enzyme,”, “(luminescent” for “(luminescence”, “mean” for “average”

[2] = tested on: PC-3 prostate cancer cell line; assay: MTT cell viability assay, PC-3; type: cell-based; details: read-out: EC50 on cell viability, PC-3 (Prostate)
Method: as §1

[3] = tested on: ACHN renal cell carcinoma cell line; assay: MTT cell viability assay, ACHN; type: cell-based; details: Homo sapiens, read-out: EC50 on cell viability, ACHN (Kidney)
Method: as §1, with “Inhibitors were dissolved in DMSO and then diluted to concentrations ranging from 0.1-25 μM with a final DMSO concentration of 0.1%.” left out

[4] = tested on: T47D breast cancer cell line; assay: MTT cell viability assay, T47D; type: cell-based; details: Homo sapiens, 72 hours incubation
Method: as §1

HepG2 hepatoma cell line = assay: MTT cell viability assay, HepG2; type: cell-based; details: for EC50: Homo sapiens, read-out: EC50 on cell viability, HepG2 (Liver)
Method: as §1, with “Inhibitors were dissolved in DMSO and then diluted to concentrations ranging from 0.1-25 μM with a final DMSO concentration of 0.1%.” left out

human sEH = human sEH (Homo sapiens (Human), UniProt P34913); assay: Inhibitory activity against human sEH; type: biochemical; details: read-out: Human sEH IC50
Huh-7 hepatoma cell line = assay: MTT cell viability assay, Huh-7; type: cell-based; details: Homo sapiens, read-out: EC50 on cell viability, Huh-7 (Liver)
Method: as §1, with “Inhibitors were dissolved in DMSO and then diluted to concentrations ranging from 0.1-25 μM with a final DMSO concentration of 0.1%.” left out

b-Raf (V600E) = b-Raf (V600E) (Homo sapiens (Human), UniProt P15056, V600E); assay: In vitro kinase inhibition assay (ADP-Glo), b-Raf (V600E); type: biochemical
Method: as §2, §3

[5] = Pharmacokinetics after cassette oral administration to mice; details: male, Swiss Webster, mouse, in vivo, 1 mg/kg
Method: Male Swiss Webster mice (10-week old, 30-35 g) were used for PK studies. […] Each blood sample was immediately transferred to a tube containing 50 μL of water containing 0.1% EDTA. After being mixed strongly on a Vortex for 1 min, all samples were stored at −80° C. until analysis. The extraction of sEHIs from blood was performed by a slight modification of a previous method. […] Torrance, Calif.) held at 50° C. […] The injection volume was 10 μL and the samples were kept at 4° C. in the auto sampler. Analytes were detected by negative mode electrospray ionizations tandem quadrupole trap mass spectrometry in multiple reaction-monitoring mode (MRM) on a Trap 4000 Mass Spectrometer (ABI, Milford, Mass.). The parameters of MS condition were the same as presented previously.

[6] = SK-BR-3, MTT, 72 hours incubation
[7] = HepG2, MTT, 72 hours incubation
[8] = Huh-7, MTT, 72 hours incubation

Sequence of human sEH (P34913 whole entry): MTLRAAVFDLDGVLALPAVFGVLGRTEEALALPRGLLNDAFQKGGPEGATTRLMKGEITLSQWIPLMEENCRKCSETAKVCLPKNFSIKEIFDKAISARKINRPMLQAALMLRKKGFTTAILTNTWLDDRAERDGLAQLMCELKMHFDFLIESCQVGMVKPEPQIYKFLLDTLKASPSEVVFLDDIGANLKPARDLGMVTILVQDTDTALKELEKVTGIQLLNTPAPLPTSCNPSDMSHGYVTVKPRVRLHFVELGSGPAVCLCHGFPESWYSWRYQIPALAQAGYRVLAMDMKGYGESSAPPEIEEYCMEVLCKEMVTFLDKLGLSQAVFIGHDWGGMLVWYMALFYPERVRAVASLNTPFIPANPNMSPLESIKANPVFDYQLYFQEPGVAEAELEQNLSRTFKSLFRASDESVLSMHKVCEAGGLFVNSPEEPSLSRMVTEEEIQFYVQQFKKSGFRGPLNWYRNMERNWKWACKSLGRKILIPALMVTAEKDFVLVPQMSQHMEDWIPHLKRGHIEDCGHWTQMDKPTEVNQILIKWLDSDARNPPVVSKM
Sequence of Raf-1 (P04049 whole entry): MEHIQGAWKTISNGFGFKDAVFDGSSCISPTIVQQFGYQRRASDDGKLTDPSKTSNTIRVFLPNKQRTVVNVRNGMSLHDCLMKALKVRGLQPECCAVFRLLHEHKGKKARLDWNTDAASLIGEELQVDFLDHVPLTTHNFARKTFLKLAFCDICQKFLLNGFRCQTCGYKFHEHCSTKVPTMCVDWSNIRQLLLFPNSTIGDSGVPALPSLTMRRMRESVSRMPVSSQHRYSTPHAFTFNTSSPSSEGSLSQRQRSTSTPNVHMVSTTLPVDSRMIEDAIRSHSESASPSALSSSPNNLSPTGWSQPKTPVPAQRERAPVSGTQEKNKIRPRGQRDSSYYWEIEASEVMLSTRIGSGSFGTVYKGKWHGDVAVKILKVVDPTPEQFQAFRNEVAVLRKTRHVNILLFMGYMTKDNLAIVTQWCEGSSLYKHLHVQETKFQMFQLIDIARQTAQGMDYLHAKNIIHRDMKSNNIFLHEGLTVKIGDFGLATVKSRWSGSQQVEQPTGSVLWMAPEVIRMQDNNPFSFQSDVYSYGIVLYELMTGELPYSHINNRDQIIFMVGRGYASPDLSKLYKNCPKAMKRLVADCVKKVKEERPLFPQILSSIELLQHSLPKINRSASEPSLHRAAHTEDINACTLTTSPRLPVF
Sequence of b-Raf (V600E) (P15056 whole entry V600E): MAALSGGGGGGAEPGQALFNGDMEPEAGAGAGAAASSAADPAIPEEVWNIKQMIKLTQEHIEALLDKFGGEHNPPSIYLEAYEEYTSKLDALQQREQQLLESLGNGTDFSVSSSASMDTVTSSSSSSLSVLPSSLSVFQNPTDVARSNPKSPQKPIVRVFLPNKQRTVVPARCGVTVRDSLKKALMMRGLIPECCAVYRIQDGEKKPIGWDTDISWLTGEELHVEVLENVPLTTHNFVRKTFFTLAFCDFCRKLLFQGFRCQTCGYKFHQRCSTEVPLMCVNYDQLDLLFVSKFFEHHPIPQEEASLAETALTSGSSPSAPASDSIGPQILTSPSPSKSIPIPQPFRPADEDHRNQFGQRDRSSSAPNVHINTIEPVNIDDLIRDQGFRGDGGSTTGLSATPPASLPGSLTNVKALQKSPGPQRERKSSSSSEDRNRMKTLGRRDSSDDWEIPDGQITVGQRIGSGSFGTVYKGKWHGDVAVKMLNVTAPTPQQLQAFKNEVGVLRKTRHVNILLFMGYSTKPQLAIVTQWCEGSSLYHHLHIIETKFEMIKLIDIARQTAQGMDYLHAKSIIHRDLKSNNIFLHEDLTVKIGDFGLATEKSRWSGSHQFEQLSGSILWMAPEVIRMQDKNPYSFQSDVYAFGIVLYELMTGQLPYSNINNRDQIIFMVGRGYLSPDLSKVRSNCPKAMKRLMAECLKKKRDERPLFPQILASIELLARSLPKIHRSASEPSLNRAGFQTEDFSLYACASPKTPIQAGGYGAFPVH

Compound `CNC(=O)c1ccc(O[C@H]2CC[C@H](NC(=O)NC34CC5CC(CC(C5)C3)C4)CC2)cc1` [Compound 2225, trans-4-[4-(3-adamantan-1-yl-ureido]-cyclohexyloxy)-N-methyl-benzamide] has an EC50 [1, 6] of 7.5 µM, an IC50 (Raf-1; 10 nM enzyme, 1 μM MEK1, 10 μM ATP, 22° C., 2 hours, read-out: Raf-1 IC50) of over 10 µM and an EC50 ([2]; MTT, 72 hours incubation) of 2 µM. The EC50 ([3]; MTT, 72 hours incubation) was 4.5 µM, the EC50 [4] was 4.5 µM and the EC50 (HepG2 hepatoma cell line; [7]) was 6 µM. The IC50 (human sEH) was 0.0005 µM and the EC50 (Huh-7 hepatoma cell line; [8]) was 7 µM.

`CNC(=O)c1ccc(O[C@H]2CC[C@H](NC(=O)Nc3ccc(OC(F)(F)F)cc3)CC2)cc1` [Compound 2227, trans-N-Methyl-4-{4-[3-(4-trifluoromethoxy-phenyl)-ureido]-cyclohexyloxy}-benzamide] gave an EC50 ([1]; SK-BR-3, 72 h) of over 25 µM, an IC50 (Raf-1) of 0.34 ± 0.04 µM and an EC50 ([2]; 72 h) of 10 µM. For the same compound, the EC50 ([3]; 72 h) was 6.5 µM, the IC50 (b-Raf (V600E)) was over 10 µM and the EC50 [4] was over 25 µM. The EC50 (HepG2 hepatoma cell line; HepG2, 72 h) was 7 µM and the EC50 (Huh-7 hepatoma cell line; Huh-7, 72 h) was 5.5 µM.

Compound `CNC(=O)c1cc(O[C@H]2CC[C@H](NC(=O)Nc3ccc(Cl)c(C(F)(F)F)c3)CC2)ccn1` [Compound 2278, trans-4-{4-[3-(4-chloro-3-trifluoromethyl-phenyl)-ureido]-cyclohexyloxy}-pyridine-2-carboxylic acid methylamide] has an EC50 [1, 6] of 8 µM, an EC50 ([2]; MTT, 72 hours incubation) of 7 µM and an EC50 ([3]; MTT, 72 hours incubation) of 7.5 µM. For the same compound, the AUC(0-t) [5] was 3 µM·h, the Cmax [5] was 190 nM and the Tmax [5] was 1.7 h. The EC50 [4] was 5 µM, the “Effect on Hep G2 cell viability (dose dependence)” value (HepG2 hepatoma cell line; FIG. 2) was “more efficient than sunitinib” and the “Effect on Hep G2 cell viability (comparison of inhibitors)” value (HepG2 hepatoma cell line; FIG. 3, at a concentration 2-fold smaller) was “more efficient than sunitinib”. The “Effect on Hep G2 cell viability (dose dependence)” value (HepG2 hepatoma cell line; FIG. 4) was “more efficient than sunitinib”, the EC50 (HepG2 hepatoma cell line; [7]) was 7 µM and the IC50 (human sEH) was 0.0005 µM. For the same compound, the EC50 (Huh-7 hepatoma cell line; [8]) was 8 µM.
